How the values were obtained:
Type in all cases: physicochemical
[1] = Scale-up preparation of Form C with DVS
Description: Approximately 300 mg of Form A was weighed into a 4 mL glass vial and 2.5 mL of MeCN was added slowly to make a slurry. The sample vial was kept at 50° C. with stirring for 3 days. After 3 days, slurry material was isolated and dried at 40° C. with a N2 bleed.

[2] = Excipient compatibility study with Compound A sesquifumarate; details: for Change in appearance, XRPD or DSC: 8 weeks 25° C./60% RH or 4 weeks 40° C./75% RH
From the text: The first activity in developing a tablet formulation was selection of excipients. The main purpose of the excipient compatibility study was to evaluate changes in related substances, specifically Impurity A (relative retention time [RRT]˜0.98). […] However, formation of this degradant is not possible in product containing Compound A citrate, as it is formed by reaction of the sesquifumarate drug substance with the double bond in fumaric acid. A secondary purpose of the compatibility study was to assess changes in Compound A assay and physical properties. Even though formation of Impurity A is not possible for Compound A citrate, chemical and physical results of this study were still used to guide tablet excipient selection.
Common excipients were evaluated as part of the excipient compatibility study. Samples were incubated at 25° C./60% RH long-term condition as well as a 40° C./75% RH accelerated condition. Individual vials were removed for analysis at 0, 4, and 8 weeks. Samples were tested for appearance, Compound A sesquifumarate assay and related substances, X-ray powder diffraction (XRPD), and differential scanning calorimetry (DSC) at T-0 and 4 weeks for both long-term and accelerated conditions, and 8 weeks for the long-term condition. At 8 weeks, the accelerated condition samples were tested for Compound A sesquifumarate assay and related substances only. Assay and related substances were tested by reversed-phase ultra-performance liquid chromatography (RP-UPLC), with adjusted sample preparation to accommodate small sample amounts. Vials of Compound A sesquifumarate alone were used as controls.

[3] = Solution stability of Compound A sesquifumarate at 25° C. and 40° C.; details: for Appearance / Compound A Sesquifumarate Purity (Average % area) / Impurity A (Average % area) / pH: 50 mg/mL formulation
Description: The initial F1 and F2 formulations utilized Compound A sesquifumarate. The pH stability of Compound A sesquifumarate solutions was studied in water at pH 5.0, 5.5, and 6.0 over 4 weeks at 25° C. and 40° C. The desired concentration of 50 mg/mL was soluble at all pH values, although Compound A dissolution occurred more rapidly at lower pH. There was a single major degradant, designated as Impurity A (relative retention time [RRT]˜0.98).
Stability of formulations containing Compound A sesquifumarate was studied at 50 mg/mL in a formulation consisting of 0.07% advantame, 20 mM citrate, 1% grape flavor (FONA), 1% sodium chloride, and 0.02% propyl paraben at pH 6.5. Stability was measured over 4 weeks in glass vials at the accelerated condition of 25° C. Stability of the same formulation but at […] was also studied at the supra-accelerated condition of 40° C. These studies were conducted prior to preservative effectiveness testing and therefore used propyl paraben instead of the methylparaben sodium:potassium sorbate combination used in the final formulation.

[4] = Aqueous solubility of Compound A salts
Description: Solubility of Compound A citrate was determined in 3 different types of matrices: unbuffered water, citrate-buffered solutions from pH 3 to 6, and formulations consisting of citrate, advantame, methylparaben sodium, potassium sorbate, and sodium chloride at pH ranging from 3 to 6. Solubility in unbuffered water at ambient temperature was 38.5 mg/mL.
The target pH was reassessed when the F3 formulation was developed. Compound A citrate solubility studies were performed initially in simple buffered solutions to assess solubility trends as a function of pH. […] The target concentration of Compound A was therefore changed to 40 mg/mL as a compromise between drug substance and preservatives dissolution rate and stability.

[5] = Solution stability studies at accelerated conditions, counterion adduct (Impurity A); details: fumarate reacts with the pyrimidine ring; in solution and solid API
From the text: Compound A monocitrate monohydrate has at least two advantageously and unexpected characteristics. […] Second, in the manufacturing process, Compound A fumarate requires a separate slurrying step which results in a solvate with an organic solvent. Compound A monocitrate monohydrate salt is isolated directly from ethanol:water, no slurrying step is required. […] Additionally, the Compound A monocitrate forms a monohydrate instead of a solvate with one or more organic molecules.
Although this degradation pathway is more accelerated in solution it was also observed in the solid API. Formation of Impurity A was the reason why Compound A sesquifumarate API and drug product were stored at refrigerated temperatures.

[6] = Form C screening experiments
[7] = Exp. 1/5: reactive crystallization, material 166 mg, citric acid 51 mg, MeCN 1.0 mL, RT
[8] = Exp. 2/6: reactive crystallization, material 166 mg, citric acid 51 mg, EtOAc 1.0 mL, RT
[9] = Exp. 3/7: reactive crystallization, material 166 mg, citric acid 51 mg, MeCN 1.0 mL, 50 °C
[10] = Exp. 4/8: reactive crystallization, material 166 mg, citric acid 51 mg, EtOAc 1.0 mL, 50 °C

## CC#N.CCN(C(=O)c1cc(F)ccc1Oc1cncnc1N1CC2(CCN(CC3CCC(NS(=O)(=O)CC)CC3)CC2)C1)C(C)C.O=C(O)CC(O)(CC(=O)O)C(=O)O (stereo not shown) [Compound A citrate Form C]
[1]; 1st adsorption cycle
  DVS (weight gain between 30%-80% RH): 1.6%
[1]; 2nd adsorption cycle
  DVS (weight gain between 30%-80% RH): 6.1%
[1]; after DVS
  Post DVS form: changed to Form-A

## CCN(C(=O)c1cc(F)ccc1Oc1cncnc1N1CC2(CCN(C[C@H]3CC[C@H](NS(=O)(=O)CC)CC3)CC2)C1)C(C)C.CCN(C(=O)c1cc(F)ccc1Oc1cncnc1N1CC2(CCN(C[C@H]3CC[C@H](NS(=O)(=O)CC)CC3)CC2)C1)C(C)C.O=C(O)/C=C/C(=O)O.O=C(O)/C=C/C(=O)O.O=C(O)/C=C/C(=O)O [Compound A sesquifumarate]
[2]; binary mixtures with five fillers
  Change in appearance, XRPD or DSC: No change
[2]; control sample and filler mixtures
  Impurity A: increased in both control sample and excipient mixtures
[2]; four disintegrants
  Trends in assay or related substances: No trends
  Change in appearance, XRPD or DSC: No change
[2]; glidant and lubricants
  Trends in assay or related substances: No trends
  Change in appearance, XRPD or DSC: No change
[2]; three binders
  Trends in assay or related substances: No trends
  Change in appearance, XRPD or DSC: No change
[2]; two alkalizers
  Trends in assay or related substances: No trends
  Change in appearance, XRPD or DSC: No change
[2]; with Avicel PH 101, Avicel PH113, Avicel DG
  Impurity A formation: did not increase formation of Impurity A
[2]; with polyols mannitol and sorbitol
  Impurity A formation: accelerate the degradant formation
[3]; 25° C., 1 week
  Appearance: Clear
  Compound A Sesquifumarate Purity (Average % area): 99.77 % area
  Impurity A (Average % area): 0.14 % area
  pH: 6.6
[3]; 25° C., 2 weeks
  Appearance: Clear
  Compound A Sesquifumarate Purity (Average % area): 99.78 % area
  Impurity A (Average % area): 0.13 % area
  pH: 6.6
[3]; 25° C., 4 weeks
  Appearance: Clear
  Compound A Sesquifumarate Purity (Average % area): 99.78 % area
  Impurity A (Average % area): 0.14 % area
  pH: 6.6
[3]; 25° C., time 0
  Appearance: Clear
  Compound A Sesquifumarate Purity (Average % area): 99.78 % area
  Impurity A (Average % area): 0.14 % area
  pH: 6.5
[3]; 40° C., 1 week
  Appearance: Clear
  Compound A Sesquifumarate Purity (Average % area): 99.75 % area
  Impurity A (Average % area): 0.17 % area
  pH: 6.2
[3]; 40° C., 2 weeks
  Appearance: Clear
  Compound A Sesquifumarate Purity (Average % area): 99.68 % area
  Impurity A (Average % area): 0.24 % area
  pH: 6.2
[3]; 40° C., 4 weeks
  Appearance: Clear
  Compound A Sesquifumarate Purity (Average % area): 99.58 % area
  Impurity A (Average % area): 0.34 % area
  pH: 6.3
[3]; 40° C., time 0
  Appearance: Clear
  Compound A Sesquifumarate Purity (Average % area): 99.77 % area
  Impurity A (Average % area): 0.14 % area
  pH: 6.2
[3]; water at pH 5.0, 5.5, 6.0, 4 weeks, 25° C. and 40° C.
  Impurity A formation: increased in a temperature- and time-dependent manner
[3]; water at pH 5.0, 5.5 and 6.0
  solubility: ≥ 50 mg/mL
[4]
  Biopharmaceutical Classification System solubility definition: highly soluble
[4]; 50 mg/mL Compound A solution in water
  pH of solution: approximately 3.5
[5]
  Chemical degradation forming impurity A: subject to a chemical degradation

## CCN(C(=O)c1cc(F)ccc1Oc1cncnc1N1CC2(CCN(C[C@H]3CC[C@H](NS(=O)(=O)CC)CC3)CC2)C1)C(C)C [FB-1]
[6]; [7]
  Crystal Form: Form A, w/pattern shift
[6]; [8]
  Crystal Form: FB-1 w/extra peaks
[6]; [9]
  Crystal Form: Form A → Form C
[6]; [10]
  Crystal Form: Essentially Form C
[6]; Exp. 11: slurry conditioning, 166 mg, no citric acid, MeCN 1.0 mL, 50 °C
  Crystal Form: FB-1
[6]; Exp. 12: slurry conditioning, 166 mg, no citric acid, EtOAc 1.0 mL, 50 °C
  Crystal Form: FB-1

## CCN(C(=O)c1cc(F)ccc1Oc1cncnc1N1CC2(CCN(C[C@H]3CC[C@H](NS(=O)(=O)CC)CC3)CC2)C1)C(C)C [FB-2]
[6]; [7]
  Crystal Form: Form A, w/pattern shift
[6]; [8]
  Crystal Form: FB-2 w/extra peaks
[6]; [9]
  Crystal Form: Form A → Form C
[6]; [10]
  Crystal Form: Form A
[6]; Exp. 9: slurry conditioning, 166 mg, no citric acid, MeCN 1.0 mL, RT
  Crystal Form: FB-2
[6]; Exp. 10: slurry conditioning, 166 mg, no citric acid, EtOAc 1.0 mL, RT
  Crystal Form: FB-2
[6]; Exp. 13: reactive crystallization, citric acid 15 mg, MeCN 0.5 mL, RT (Form C in MeCN; Hazy → FB + Acid)
  Crystal Form: Form C
[6]; Exp. 14: reactive crystallization, citric acid 15 mg, MeCN 0.5 mL, RT (FB + Acid in MeCN → CL → Form C)
  Crystal Form: Form C
[6]; Exp. 15: citric acid 30 mg, MeCN 0.5 + 1.5 mL, RT, 1:2 of FB:Acid
  Crystal Form: Form C

Source: US20250170132A1, “SALTS AND POLYMORPHIC FORMS OF MENIN INHIBITORS AND PHARMACEUTICAL COMPOSITIONS THEREOF” (Syndax Pharmaceuticals, Inc., priority 2023, published 2025)
